{"source": "patent US8101766B2", "about": "“Crystalline form of a biphenyl compound” (Theravance, Inc., priority 2004, dated 2012)", "key": {"hM3 receptor": {"target": "T1, hM3 receptor (Homo sapiens, UniProt P20309)", "T1 construct": "expressed in transfected cells", "T1 sequence (P20309 whole entry)": "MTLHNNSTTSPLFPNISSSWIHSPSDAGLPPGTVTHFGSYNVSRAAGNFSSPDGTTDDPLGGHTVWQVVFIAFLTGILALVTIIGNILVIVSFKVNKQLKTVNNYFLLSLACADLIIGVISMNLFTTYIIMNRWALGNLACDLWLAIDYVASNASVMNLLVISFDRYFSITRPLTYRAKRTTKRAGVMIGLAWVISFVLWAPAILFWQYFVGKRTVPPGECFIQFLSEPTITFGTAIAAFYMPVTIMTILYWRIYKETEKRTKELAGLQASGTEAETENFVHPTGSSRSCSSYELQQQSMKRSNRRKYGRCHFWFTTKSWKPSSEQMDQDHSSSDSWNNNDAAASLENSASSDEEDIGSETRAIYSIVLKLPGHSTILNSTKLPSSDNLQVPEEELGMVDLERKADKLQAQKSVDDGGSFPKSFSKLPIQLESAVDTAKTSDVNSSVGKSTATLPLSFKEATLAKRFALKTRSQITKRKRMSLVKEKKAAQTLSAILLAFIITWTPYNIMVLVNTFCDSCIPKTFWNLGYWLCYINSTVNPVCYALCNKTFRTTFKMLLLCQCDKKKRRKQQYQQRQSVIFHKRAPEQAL", "assay": "Blockade of agonist-mediated calcium release via FLIPR assay (hM3)", "assay_type": "cell-based", "conditions": "CHO cells stably expressing hM3", "text": "B. Blockade of Agonist-Mediated Calcium Release Via FLIPR Assays\nMuscarinic receptor subtypes (M1, M3 and M5 receptors), which couple to Gq proteins, activate the phospholipase C (PLC) pathway upon agonist binding to the receptor. As a result, activated PLC hydrolyzes phosphatyl inositol diphosphate (PIP2) to diacylglycerol (DAG) and phosphatidyl-1,4,5-triphosphate (IP3), which in turn generates calcium release from intracellular stores, i.e., endoplasmic and sarcoplasmic reticulum. […] This fluorescence event is measured in real time by the FLIPR, which detects the change in fluorescence from a monolayer of cells cloned with human M1 and M3, and chimpanzee M5 receptors. Antagonist potency can be determined by the ability of antagonists to inhibit agonist-mediated increases in intracellular calcium. […]\nTo determine antagonist potency, the dose-dependent stimulation of intracellular Ca^2+ release for oxotremorine was first determined so that antagonist potency can later be measured against oxotremorine stimulation at an EC90 concentration. […]\nThe parameters used for the FLIPR were: exposure length of 0.4 seconds, laser strength of 0.5 watts, excitation wavelength of 488 nm, and emission wavelength of 550 nm. Baseline was determined by measuring the change in fluorescence for 10 seconds prior to addition of agonist. […]"}, "[1]": {"system": "His-induced bronchoconstriction", "assay": "Bronchoprotection in guinea pig model of histamine-induced bronchoconstriction", "assay_type": "in vivo", "conditions": "inhalation", "experimental": "Duration of Bronchoprotection in Guinea Pig Models of Acetylcholine-Induced or Histamine-Induced Bronchoconstriction\nTo isolate muscarinic antagonist activity in the acetylcholine-induced bronchoconstriction model, the animals were administered propanolol, a compound that blocks β receptor activity, prior to the administration of acetylcholine. Duration of bronchoprotection in the histamine-induced bronchoconstriction model reflects β2 adrenergic receptor agonist activity.\nGroups of 6 male guinea pigs (Duncan-Hartley (HsdPoc:DH) Harlan, Madison, Wis.) weighing between 250 and 350 g were individually identified by cage cards. Throughout the study, animals were allowed access to food and water ad libitum.\nTest compounds were administered via inhalation over 10 minutes in a whole-body exposure dosing chamber (R&S Molds, San Carlos, Calif.). […] This value was measured gravimetrically by comparing pre- and post-nebulization weights of the filled nebulizer.\nThe bronchoprotective effects of test compounds administered via inhalation were evaluated using whole body plethysmography at 1.5, 24, 48 and 72 hours post-dose. […]\nOnce it was determined that baseline values were within the range of 0.3-0.9 mL/cm H2O for compliance and within the range of 0.1-0.199 cm H2O/mL per second for resistance, the pulmonary evaluation was initiated. […]"}}, "note": "pKi: −log10 of the molar value.", "data": [{"smiles": "COc1cc(NC(=O)CCN2CCC(OC(=O)Nc3ccccc3-c3ccccc3)CC2)c(Cl)cc1CNC[C@H](O)c1ccc(O)c2[nH]c(=O)ccc12", "note": "[compound of formula I, biphenyl-2-ylcarbamic acid 1-[2-(2-chloro-4-{[(R)-2-hydroxy-2-(8-hydroxy-2-oxo-1,2-dihydroquinolin-5-yl)ethylamino]methyl}-5-methoxyphenylcarbamoyl)ethyl]piperidin-4-yl ester]", "values": [{"measurement": "pKi", "setting": "hM3 receptor", "value": "> 8.00"}, {"measurement": "bronchoprotective effect against His-induced bronchoconstriction", "setting": "[1]", "value": "dose-dependent bronchoprotective effect"}]}]}
